Article PMC6722823, “Peptide Antagonists for P-selectin Discriminate between Sulfatide-Dependent Platelet Aggregation and PSGL-1-Mediated Cell Adhesion” (Journal of Clinical Medicine, 2019)
One block for each molecule: values may come before it. Positions of bridges follow the written chain, without caps; N, C: chain ends. Residues, ends and D or L forms follow the SMILES beside them. No end group written: not given here.

How the values were obtained:
P-selectin [1] = target: T1, P-selectin (Homo sapiens, UniProt P16109); assay: Competition of [3H]-CE-labeled sulfatide liposome binding to P-selectin-coated wells; conditions: for Change in Sf42 liposome binding to P-selectin: Sf42 liposomes 100 μg/mL; for Change in Sf57 liposome binding to P-selectin: Sf57 liposomes 100 μg/mL; for Change in Sf28 liposome binding to P-selectin: Sf28 liposomes 100 μg/mL; for EC50: Sf28 liposomes (28% sulfatide)
T1 construct: purchased R&D systems (Minneapolis, MN, USA)
Protocol: Liposomes were prepared by sonication as follows. Egg yolk phosphatidylcholine, cholesterol, and sulfatides, all dissolved in chloroform/methanol (1:1, v/v), were mixed at weight ratios of 4:0.8:0 (named Sf0), 4:0.8:1.3 (Sf21), 2.5:0.8:1.3 (Sf28), 1:0.8:1.3 (Sf42), and 0.2:0.8:1.3 mg/mL (Sf57). The Sf numbers indicate the number of sulfatides as a percentage of total lipid weight. A tracer amount of [^3H]-cholesteryl oleate ([^3H]-CE; 1.3 × 10^8 dpm (disintegrations per minute)) was added, and the organic solvent was evaporated by a stream of nitrogen. The resulting lipid layer was vortexed in 1 mL phosphate buffered saline (PBS) and subsequently sonicated for 40 min at 54 °C using a Soniprep 150 (MSE Scientific Instruments, Crawley, UK) at 18 µm amplitude. Particle sizes were determined by photon correlation spectroscopy (Malvern 4700 C System, Malvern Instruments, Malvern, UK) at 25 °C and a 90° angle between laser and detector. […] Liposomes were stored at 4 °C under argon and used for characterization and metabolic studies within 7 days following preparation, during which no physicochemical changes occurred. As the liposomes were equal in size and incorporation of the radioactive label was quantitative, the specific activity of each sulfatide-bearing liposome was calculated as the amount of [^3H]-cholesteryloleate (dpm) divided by the total lipid content (ng).
Fc-specific goat anti-human IgG (10 μg/mL) was coated overnight at 4 °C in a high binding 96-well plate (Costar, Corning, UK) in coating buffer (50 mM NaHCO3, pH 9.6). Then, wells were washed with assay buffer (20 mmol/L HEPES, 150 mmol/L NaCl, 1 mmol/L CaCl2, pH 7.4) and incubated for 1 h at 37 °C with blocking buffer (3% bovine serum albumin (BSA) in assay buffer). After washing, wells were incubated with fusion proteins of IgG and P-, E-, or L-selectin (0.3 μg/mL, 2 h, 37 °C), washed with assay buffer, and subsequently incubated for 2 h at 4 °C with a concentration range of [^3H]-CE-labeled liposomes (0–800 µg lipid per mL assay buffer containing 0.2% BSA). For competition studies, labeled liposomes (1 × 10^5 dpm/well) were incubated in the presence of peptides or antibodies at the indicated concentrations. After removal of unbound liposomes by washing four times with assay buffer, bound liposomes were collected in 2-propanol/butanol/water (50:25:20, by vol.) and counted for radioactivity using a scintillation counter. Since the sulfatide liposomes were equal in size, the recovered amount of [^3H]-CE could be used to calculate the binding capacity of P-selectin for the sulfatide liposomes, as well as the recovered amount of lipid (ng/well) based on the specific activity.

human platelets [2] = assay: Aggregate size after ADP-induced aggregation of human PRP (light microscopy); format: cell-based; conditions: 100 μM
Protocol: (§1) Human PRP was incubated with peptide antagonists (100 μmol/L, 5 min, 37 °C) or vehicle and stimulated with 10 μmol/L ADP under constant stirring at 1000 rpm (37 °C). Optical aggregation was monitored in a Chrono-Log Lumi-aggregometer (Chrono-Log Corporation, Havertown, PA, USA).
After 15 min, aggregates were fixed in 1 volume 0.5% glutaraldehyde in PBS and applied to microscope slides. Aggregates were dehydrated with methanol and stained with May-Grünwald/Giemsa. The aggregate size was measured by light microscopy equipped with a JAI-CCD camera (Copenhagen, Denmark) coupled to a Matrox frame grabber (Matrox Electronic Systems Ltd., Dorval, Quebec, Canada) using the ‘watershed’ function of the Optimas 6.2 software (Optimas Inc., Seattle, WA, USA). Results were expressed as mean aggregate size (μm^2).

human platelets [3] = assay: ADP-induced platelet aggregation in human platelet-rich plasma (optical aggregometry); format: cell-based; conditions: 10 μM ADP
Source text: Freshly drawn venous blood from healthy volunteers was obtained through the Mini Donor Service, a blood donation facility for research purposes, that is approved by the Medical Ethics Committee of the University Medical Center Utrecht (protocol number 07-125). All donors provided written informed consent, in accordance with the Declaration of Helsinki for blood collection through this service. All participant information is kept confidential, and only Mini Donor Service personnel have access to the information provided. The donors were free of medication for at least two weeks before blood collection. Overnight fasting before blood collection was not necessary. Blood was collected into 0.1 volume 130 mmol/L trisodium citrate and was processed the same day and within 6 h. For aggregation studies, platelet-rich plasma (PRP) was prepared by centrifugation (150 g, 15 min, 20 °C) and adjusted to a final concentration of 2×10^11 platelets/L with platelet-poor plasma prepared from the remaining blood (1100 g, 10 min, 20 °C). […]
as §1

[4] = target: P-selectin binding to HL60 cells (PSGL-1) (Homo sapiens, UniProt P16109); conditions: displacement of P-selectin binding to HL60 cells; ref Molenaar et al. [28]; cited from earlier work
P-selectin [5] = target: T1, P-selectin; assay: Surface plasmon resonance (Biacore), sulfatide-coated L1 chip, P-selectin; format: binding; conditions: Fc fusion protein 40 nM
Protocol: (§2) A Biacore 2000 instrument (Biacore AB, Uppsala, Sweden) was used to analyze the interaction between sulfatides and P-, L, and E-selectins, as described. Experiments were performed at room temperature using running buffer (20 mmol/L HEPES, 150 mmol/L NaCl, 1 mmol/L CaCl2, 0.005% Surfactant P20, pH 7.4). Sulfatides were immobilized on L1 sensor chips at 5 μL/min according to the manufacturer’s instructions. Binding kinetics of human fusion proteins IgG and P-, L- and E- selectins to the immobilized sulfatides were determined by injection of the fusion proteins. At the end of each injection, the sensor chips were regenerated with 100 mmol/L NaOH and equilibrated with running buffer. All curves were corrected for non-specific binding by an online baseline subtraction of ligand binding to a control flow channel. Binding kinetics were analyzed using BIAevaluation software (V2.1; Pharmacia Biosensor, Uppsala, Sweden).
Target sequence in this assay (P16109 with tags, fused parts or gaps limits assumed): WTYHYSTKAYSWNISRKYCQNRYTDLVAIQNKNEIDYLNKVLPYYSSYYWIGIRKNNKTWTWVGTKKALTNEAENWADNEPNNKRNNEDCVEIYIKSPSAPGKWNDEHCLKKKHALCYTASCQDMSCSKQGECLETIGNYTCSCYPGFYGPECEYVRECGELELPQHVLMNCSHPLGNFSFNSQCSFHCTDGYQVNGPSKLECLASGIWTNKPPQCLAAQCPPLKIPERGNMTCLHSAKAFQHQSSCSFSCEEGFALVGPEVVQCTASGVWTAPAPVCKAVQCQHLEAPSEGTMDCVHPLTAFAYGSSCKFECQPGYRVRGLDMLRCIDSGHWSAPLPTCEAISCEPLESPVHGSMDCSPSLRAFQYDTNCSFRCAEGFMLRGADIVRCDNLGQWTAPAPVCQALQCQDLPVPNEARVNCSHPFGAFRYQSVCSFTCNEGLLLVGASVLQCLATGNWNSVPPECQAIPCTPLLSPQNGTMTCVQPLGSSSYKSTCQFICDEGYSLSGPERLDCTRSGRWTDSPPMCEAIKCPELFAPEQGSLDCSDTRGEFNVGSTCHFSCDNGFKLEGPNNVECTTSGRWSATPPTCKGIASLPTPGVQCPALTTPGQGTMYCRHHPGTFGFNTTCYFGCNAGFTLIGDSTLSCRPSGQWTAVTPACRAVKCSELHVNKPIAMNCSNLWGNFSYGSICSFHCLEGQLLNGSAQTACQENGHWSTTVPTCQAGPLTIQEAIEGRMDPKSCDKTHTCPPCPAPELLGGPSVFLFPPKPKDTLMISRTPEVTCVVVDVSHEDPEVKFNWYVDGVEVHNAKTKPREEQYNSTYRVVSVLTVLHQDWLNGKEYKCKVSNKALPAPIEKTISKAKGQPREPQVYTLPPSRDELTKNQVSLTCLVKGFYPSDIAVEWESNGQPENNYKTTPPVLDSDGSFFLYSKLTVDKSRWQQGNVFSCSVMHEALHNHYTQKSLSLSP

L-selectin = target: T2, L-selectin (Homo sapiens, UniProt P14151); assay: Surface plasmon resonance (Biacore), sulfatide-coated L1 chip, L-selectin; format: binding; conditions: Fc fusion protein 40 nM
T2 sequence (P14151 39-318 limits assumed): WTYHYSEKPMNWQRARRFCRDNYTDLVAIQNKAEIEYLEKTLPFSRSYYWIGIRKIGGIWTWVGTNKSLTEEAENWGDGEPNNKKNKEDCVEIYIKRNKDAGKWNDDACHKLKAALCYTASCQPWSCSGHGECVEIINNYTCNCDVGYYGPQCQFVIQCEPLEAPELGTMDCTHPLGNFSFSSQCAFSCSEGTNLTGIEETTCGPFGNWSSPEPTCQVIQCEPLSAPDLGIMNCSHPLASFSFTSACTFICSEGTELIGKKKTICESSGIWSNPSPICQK
Protocol: as §2

E-selectin = target: T3, E-selectin (Homo sapiens, UniProt P16581); assay: Surface plasmon resonance (Biacore), sulfatide-coated L1 chip, E-selectin; format: binding; conditions: Fc fusion protein 40 nM
T3 construct: purchased R&D systems (Minneapolis, MN, USA)
Protocol: as §2

[6] = target: human P-selectin-IgG (human) (UniProt P16109)
human P-selectin-IgG = target: T4, human P-selectin-IgG (human, UniProt P16109 42-771); assay: radioligand binding; displacement: P-selectin-IgG (0.3 ug/mL) captured on Fc-specific goat anti-human IgG in 96-well plates; [3H]-cholesteryl oleate-labelled Sf28 sulfatide liposomes (1 x 10^5 dpm/well) with increasing amounts of peptide; 2 h, 4 C; 20 mmol/L HEPES, 150 mmol/L NaCl, 1 mmol/L CaCl2, pH 7.4, 0.2% BSA; conditions: both partners purified
T4 construct: P-selectin, human, fused to IgG (Fc); Captured in the wells through Fc-specific goat anti-human IgG; also called human Fc fusion protein of P-selectin; fusion protein of IgG and P-selectin; source: bought: R&D systems
T4 sequence (looked up): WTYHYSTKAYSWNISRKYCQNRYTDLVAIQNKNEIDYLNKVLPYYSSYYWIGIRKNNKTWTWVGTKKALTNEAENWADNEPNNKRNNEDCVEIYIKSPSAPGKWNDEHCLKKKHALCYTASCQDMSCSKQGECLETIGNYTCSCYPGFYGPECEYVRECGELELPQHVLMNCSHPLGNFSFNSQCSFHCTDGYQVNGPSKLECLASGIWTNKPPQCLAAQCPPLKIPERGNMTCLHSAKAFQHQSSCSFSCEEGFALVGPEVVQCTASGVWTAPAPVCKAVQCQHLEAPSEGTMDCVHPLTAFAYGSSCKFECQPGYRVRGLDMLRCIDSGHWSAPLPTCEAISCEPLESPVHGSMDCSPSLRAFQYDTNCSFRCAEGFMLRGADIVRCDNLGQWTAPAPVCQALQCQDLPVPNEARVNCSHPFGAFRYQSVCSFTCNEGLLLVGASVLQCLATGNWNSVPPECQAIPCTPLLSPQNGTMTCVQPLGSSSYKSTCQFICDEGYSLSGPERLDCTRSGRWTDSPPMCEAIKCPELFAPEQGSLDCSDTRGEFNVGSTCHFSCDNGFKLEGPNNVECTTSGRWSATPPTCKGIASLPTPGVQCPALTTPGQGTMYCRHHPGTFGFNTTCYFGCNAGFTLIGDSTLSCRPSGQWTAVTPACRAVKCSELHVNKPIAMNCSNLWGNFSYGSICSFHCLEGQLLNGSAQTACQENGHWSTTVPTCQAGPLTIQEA

P-selectin binding to HL60 cells (PSGL-1), sequence (P16109 42-830 limits assumed): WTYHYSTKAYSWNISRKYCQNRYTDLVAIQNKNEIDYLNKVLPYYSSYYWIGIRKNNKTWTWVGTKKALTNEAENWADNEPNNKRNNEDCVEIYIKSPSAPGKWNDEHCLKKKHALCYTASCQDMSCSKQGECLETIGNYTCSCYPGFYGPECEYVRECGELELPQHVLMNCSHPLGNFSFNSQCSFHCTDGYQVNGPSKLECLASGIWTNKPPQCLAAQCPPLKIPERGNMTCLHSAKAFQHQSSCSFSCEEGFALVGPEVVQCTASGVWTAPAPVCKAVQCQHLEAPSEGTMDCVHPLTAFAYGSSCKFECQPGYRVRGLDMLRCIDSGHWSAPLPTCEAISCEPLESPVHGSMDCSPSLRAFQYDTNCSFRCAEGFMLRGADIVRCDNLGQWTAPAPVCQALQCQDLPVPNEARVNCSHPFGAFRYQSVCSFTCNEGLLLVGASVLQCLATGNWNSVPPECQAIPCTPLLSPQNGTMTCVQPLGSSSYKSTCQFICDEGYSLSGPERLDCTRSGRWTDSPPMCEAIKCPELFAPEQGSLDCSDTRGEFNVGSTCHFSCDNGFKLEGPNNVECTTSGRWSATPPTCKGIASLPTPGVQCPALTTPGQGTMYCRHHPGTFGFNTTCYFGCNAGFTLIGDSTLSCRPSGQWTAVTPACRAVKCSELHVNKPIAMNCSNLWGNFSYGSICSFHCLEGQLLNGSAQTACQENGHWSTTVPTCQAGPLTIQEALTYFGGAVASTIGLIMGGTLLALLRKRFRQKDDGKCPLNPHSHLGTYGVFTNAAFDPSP
T3 sequence (P16581 with tags, fused parts or gaps limits assumed): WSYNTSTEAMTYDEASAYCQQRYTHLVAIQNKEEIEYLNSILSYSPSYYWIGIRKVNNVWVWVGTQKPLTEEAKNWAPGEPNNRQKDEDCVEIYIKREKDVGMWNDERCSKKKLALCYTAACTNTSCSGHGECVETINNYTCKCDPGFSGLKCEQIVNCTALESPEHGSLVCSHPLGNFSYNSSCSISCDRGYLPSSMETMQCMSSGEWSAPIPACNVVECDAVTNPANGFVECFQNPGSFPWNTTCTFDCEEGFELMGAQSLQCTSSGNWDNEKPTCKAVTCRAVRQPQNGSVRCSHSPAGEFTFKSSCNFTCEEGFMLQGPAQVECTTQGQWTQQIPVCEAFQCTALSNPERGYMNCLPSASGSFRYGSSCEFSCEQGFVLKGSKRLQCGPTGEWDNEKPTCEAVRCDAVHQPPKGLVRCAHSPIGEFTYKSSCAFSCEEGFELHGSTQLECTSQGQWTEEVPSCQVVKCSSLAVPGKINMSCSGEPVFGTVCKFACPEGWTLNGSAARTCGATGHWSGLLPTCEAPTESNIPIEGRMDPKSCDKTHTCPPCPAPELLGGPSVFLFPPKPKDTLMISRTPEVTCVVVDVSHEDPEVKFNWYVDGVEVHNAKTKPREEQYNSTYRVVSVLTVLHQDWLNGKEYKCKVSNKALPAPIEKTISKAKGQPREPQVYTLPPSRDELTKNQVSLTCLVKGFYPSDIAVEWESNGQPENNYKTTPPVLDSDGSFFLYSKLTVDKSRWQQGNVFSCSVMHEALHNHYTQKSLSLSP

Molecule: CC(C)[C@@H]1NC(=O)[C@H](CC(=O)O)NC(=O)[C@H](C(C)C)NC(=O)[C@H](Cc2c[nH]c3ccccc23)NC(=O)[C@H](CCC(=O)O)NC(=O)[C@H](C(C)C)NC(=O)[C@H](CC(=O)O)NC(=O)[C@@H](N)CSSC[C@@H](C(=O)O)NC(=O)[C@H](CO)NC1=O [CDVEWVDVSC] (H-CDVEWVDVSC-OH; disulfide 1-10 (inferred); N-terminus and C-terminus assumed)
Change in Sf42 liposome binding to P-selectin (P-selectin [1]; 0.5 µM): did not affect | Change in Sf57 liposome binding to P-selectin (P-selectin [1]; 0.5 µM): did not affect | Reduction of mean aggregate size (human platelets [2]; ADP-induced aggregation of human PRP): about 90% | Aggregates smaller than 1000 μm^2 (human platelets [2]; 15% in the absence of inhibitors): 76% | Initial slope of platelet aggregation (human platelets [3]; 100 μM peptide): remained unaltered | Aggregation: percentage inhibition of platelet aggregation (human platelets [3]; 100 µM peptide, human PRP, maximum aggregation): 43% (p<0.001)

Change in Sf28 liposome binding to P-selectin (P-selectin [1]; 10 mM): −79% | Change in Sf42 liposome binding to P-selectin (P-selectin [1]; 10 mM): did not affect | Change in Sf57 liposome binding to P-selectin (P-selectin [1]; 10 mM): did not affect
Molecule: O=C(O)CN(CCN(CC(=O)O)CC(=O)O)CC(=O)O [EDTA, reference compound]

EC50 (P-selectin [1]): > 1000 µM
Molecule: AVEWVDVS [AVEWVDVS]
EC50 [4]: 12 µM

EC50 (P-selectin [1]): > 1000 µM
Molecule: DAEWVDVS [DAEWVDVS]
EC50 [4]: 19 µM

EC50 (P-selectin [1]): > 1000 µM
Molecule: DVAWVDVS [DVAWVDVS]
EC50 [4]: 41 µM

EC50 (P-selectin [1]): > 1000 µM
Molecule: DVEAVDVS [DVEAVDVS]
EC50 [4]: > 1000 µM

EC50 (P-selectin [1]): > 1000 µM
Molecule: DVEWADVS [DVEWADVS]
EC50 [4]: > 1000 µM

EC50 (P-selectin [1]): > 1000 µM
Molecule: DVEWVAVS [DVEWVAVS]
EC50 [4]: > 1000 µM

EC50 (P-selectin [1]): > 1000 µM
Molecule: DVEWVDAS [DVEWVDAS]
EC50 [4]: > 1000 µM

Molecule: DVEWVDVA [DVEWVDVA]
EC50 [4]: 7 µM

EC50 (P-selectin [1]): 12 µM
Molecule: DVEWVDVS [DVEWVDVS]
EC50 [4]: 11 µM

EC50 (P-selectin [1]): > 1000 µM | IC50 (P-selectin [1]; abstract): > 1000 µM
Molecule: EWVDV [EWVDV]
EC50 [4]: 12 µM

EC50 (P-selectin [1]): > 1000 µM
Molecule: EWVKV [EWVKV]
EC50 [4]: > 1000 µM

EC50 (P-selectin [1]): > 1000 µM
Molecule: VEWVDV [VEWVDV]
EC50 [4]: 13 µM

Binding of P-selectin to sulfatide-coated sensor chip (P-selectin [5]): bind | Binding of L-selectin to sulfatide-coated sensor chip (L-selectin): bind | Binding of E-selectin to sulfatide-coated sensor chip (E-selectin): not E-selectin
Molecule: cerebroside sulfate, bovine [Sulfatides]

Change in Sf28 liposome binding to P-selectin (P-selectin [1]; 15 µg/mL): −88% | Change in Sf42 liposome binding to P-selectin (P-selectin [1]; 15 µg/mL): −97% | Change in Sf57 liposome binding to P-selectin (P-selectin [1]; 15 µg/mL): −68%
Molecule: rPSGL-1-Ig: recombinant PSGL-1 immunoglobulin fusion, P-selectin inhibitor

Percentage inhibition of ADP-induced aggregation of human platelet-rich plasma at 100 uM peptide (sulfatide/P-selectin-dependent aggregation) [6]: 0%
Molecule: EWVKV

EC50 (human P-selectin-IgG): 0.2 µM
B1: CDVEWVDVSC (peptide)
peptide: CDVEWVDVSC
notes: also called peptide antagonist; elongated EWVDV peptide

Percentage inhibition of ADP-induced aggregation of human platelet-rich plasma at 100 uM peptide (sulfatide/P-selectin-dependent aggregation) [6]: 12%
Molecule: EWVDV

EC50 (human P-selectin-IgG): 8 µM
Molecule: DVEWVDVA (also called elongated EWVDV peptide)
